Source: ChEMBL document CHEMBL4020722, “Synthesis and evaluation of a series of pyridine and pyrimidine derivatives as type II c-Met inhibitors” (Bioorg Med Chem, 2017)

Key:
[1] = target: T1, Hepatocyte growth factor receptor (Homo sapiens, UniProt P08581); experiment: Inhibition of recombinant c-MET (unknown origin) using poly (Glu, Tyr) 4:1 as substrate after 45 mins by ELISA
[2] = target: Platelet-derived growth factor receptor alpha (Homo sapiens, UniProt P16234); experiment: Inhibition of PDGFRalpha (unknown origin) by HTRF method
EBC-1 = experiment: cells; conditions: Homo sapiens, EBC-1, 72 h
[3] = target: Epidermal growth factor receptor (Homo sapiens, UniProt P00533); experiment: Inhibition of EGFR (unknown origin) by HTRF method
[4] = target: T2, Receptor-type tyrosine-protein kinase FLT3 (Homo sapiens, UniProt P36888); experiment: Inhibition of FLT3 (unknown origin) by HTRF method
T2 sequence (P36888 whole entry): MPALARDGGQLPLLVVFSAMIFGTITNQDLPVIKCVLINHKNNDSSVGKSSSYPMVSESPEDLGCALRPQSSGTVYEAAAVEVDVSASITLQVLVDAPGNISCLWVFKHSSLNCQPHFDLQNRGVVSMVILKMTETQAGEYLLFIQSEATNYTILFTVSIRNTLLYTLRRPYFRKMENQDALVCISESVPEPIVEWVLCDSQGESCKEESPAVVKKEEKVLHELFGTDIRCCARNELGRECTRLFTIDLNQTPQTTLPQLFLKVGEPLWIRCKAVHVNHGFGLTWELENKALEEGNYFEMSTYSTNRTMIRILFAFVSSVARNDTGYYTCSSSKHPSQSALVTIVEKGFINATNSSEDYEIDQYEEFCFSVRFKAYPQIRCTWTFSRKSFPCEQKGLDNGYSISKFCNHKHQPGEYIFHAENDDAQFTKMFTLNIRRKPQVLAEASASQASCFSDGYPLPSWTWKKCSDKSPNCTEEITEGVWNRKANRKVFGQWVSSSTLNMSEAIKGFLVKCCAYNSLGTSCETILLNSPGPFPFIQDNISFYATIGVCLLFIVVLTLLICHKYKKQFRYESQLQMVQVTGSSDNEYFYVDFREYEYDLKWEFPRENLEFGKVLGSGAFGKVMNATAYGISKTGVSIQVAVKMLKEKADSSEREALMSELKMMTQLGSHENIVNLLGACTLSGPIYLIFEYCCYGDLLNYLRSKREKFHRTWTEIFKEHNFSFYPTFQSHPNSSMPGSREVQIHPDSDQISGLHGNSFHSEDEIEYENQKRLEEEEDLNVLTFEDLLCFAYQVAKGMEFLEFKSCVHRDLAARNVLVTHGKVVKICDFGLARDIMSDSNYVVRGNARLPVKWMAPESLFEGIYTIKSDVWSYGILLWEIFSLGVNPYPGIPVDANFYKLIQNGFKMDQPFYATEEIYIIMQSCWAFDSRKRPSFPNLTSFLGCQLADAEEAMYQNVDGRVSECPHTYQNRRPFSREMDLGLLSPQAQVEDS

[5] = target: Mast/stem cell growth factor receptor Kit (Homo sapiens, UniProt P10721); experiment: Inhibition of KIT (unknown origin) by HTRF method
[6] = target: Proto-oncogene tyrosine-protein kinase receptor Ret (Homo sapiens, UniProt P07949); experiment: Inhibition of RET (unknown origin) by HTRF method
[7] = target: Vascular endothelial growth factor receptor 2 (Homo sapiens, UniProt P35968)
[8] = target: T1, Hepatocyte growth factor receptor; conditions: 0.1 mM
HepG2 = experiment: cells; conditions: Homo sapiens, HepG2, 72 h

Platelet-derived growth factor receptor alpha, sequence (P16234 whole entry): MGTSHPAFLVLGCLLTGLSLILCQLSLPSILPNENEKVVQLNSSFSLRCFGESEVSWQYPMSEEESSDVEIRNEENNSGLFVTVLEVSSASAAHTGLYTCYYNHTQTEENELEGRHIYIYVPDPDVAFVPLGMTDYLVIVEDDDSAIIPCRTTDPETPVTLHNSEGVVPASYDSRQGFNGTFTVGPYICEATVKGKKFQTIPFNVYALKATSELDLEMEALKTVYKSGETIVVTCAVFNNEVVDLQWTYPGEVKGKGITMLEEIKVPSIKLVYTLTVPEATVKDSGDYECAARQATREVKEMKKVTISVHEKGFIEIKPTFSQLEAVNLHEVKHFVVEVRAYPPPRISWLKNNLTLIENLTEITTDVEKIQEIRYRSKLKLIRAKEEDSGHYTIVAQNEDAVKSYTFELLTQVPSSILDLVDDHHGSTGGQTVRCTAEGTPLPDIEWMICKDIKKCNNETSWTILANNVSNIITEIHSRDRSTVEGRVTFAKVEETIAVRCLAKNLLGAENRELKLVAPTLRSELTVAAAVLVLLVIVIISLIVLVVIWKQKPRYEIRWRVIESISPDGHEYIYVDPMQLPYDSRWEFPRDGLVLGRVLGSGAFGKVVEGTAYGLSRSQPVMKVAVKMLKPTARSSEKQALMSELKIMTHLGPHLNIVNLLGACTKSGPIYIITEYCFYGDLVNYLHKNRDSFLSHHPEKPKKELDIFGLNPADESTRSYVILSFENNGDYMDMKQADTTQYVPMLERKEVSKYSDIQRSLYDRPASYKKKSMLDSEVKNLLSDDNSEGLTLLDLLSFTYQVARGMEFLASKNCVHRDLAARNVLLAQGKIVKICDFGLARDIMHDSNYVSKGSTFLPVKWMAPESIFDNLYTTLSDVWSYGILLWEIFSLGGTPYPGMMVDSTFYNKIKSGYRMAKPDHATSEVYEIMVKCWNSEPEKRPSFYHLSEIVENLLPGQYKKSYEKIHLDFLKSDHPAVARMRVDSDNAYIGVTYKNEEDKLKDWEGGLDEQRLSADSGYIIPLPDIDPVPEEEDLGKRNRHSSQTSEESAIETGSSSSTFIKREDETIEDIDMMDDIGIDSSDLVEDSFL
T1 sequence (P08581 whole entry): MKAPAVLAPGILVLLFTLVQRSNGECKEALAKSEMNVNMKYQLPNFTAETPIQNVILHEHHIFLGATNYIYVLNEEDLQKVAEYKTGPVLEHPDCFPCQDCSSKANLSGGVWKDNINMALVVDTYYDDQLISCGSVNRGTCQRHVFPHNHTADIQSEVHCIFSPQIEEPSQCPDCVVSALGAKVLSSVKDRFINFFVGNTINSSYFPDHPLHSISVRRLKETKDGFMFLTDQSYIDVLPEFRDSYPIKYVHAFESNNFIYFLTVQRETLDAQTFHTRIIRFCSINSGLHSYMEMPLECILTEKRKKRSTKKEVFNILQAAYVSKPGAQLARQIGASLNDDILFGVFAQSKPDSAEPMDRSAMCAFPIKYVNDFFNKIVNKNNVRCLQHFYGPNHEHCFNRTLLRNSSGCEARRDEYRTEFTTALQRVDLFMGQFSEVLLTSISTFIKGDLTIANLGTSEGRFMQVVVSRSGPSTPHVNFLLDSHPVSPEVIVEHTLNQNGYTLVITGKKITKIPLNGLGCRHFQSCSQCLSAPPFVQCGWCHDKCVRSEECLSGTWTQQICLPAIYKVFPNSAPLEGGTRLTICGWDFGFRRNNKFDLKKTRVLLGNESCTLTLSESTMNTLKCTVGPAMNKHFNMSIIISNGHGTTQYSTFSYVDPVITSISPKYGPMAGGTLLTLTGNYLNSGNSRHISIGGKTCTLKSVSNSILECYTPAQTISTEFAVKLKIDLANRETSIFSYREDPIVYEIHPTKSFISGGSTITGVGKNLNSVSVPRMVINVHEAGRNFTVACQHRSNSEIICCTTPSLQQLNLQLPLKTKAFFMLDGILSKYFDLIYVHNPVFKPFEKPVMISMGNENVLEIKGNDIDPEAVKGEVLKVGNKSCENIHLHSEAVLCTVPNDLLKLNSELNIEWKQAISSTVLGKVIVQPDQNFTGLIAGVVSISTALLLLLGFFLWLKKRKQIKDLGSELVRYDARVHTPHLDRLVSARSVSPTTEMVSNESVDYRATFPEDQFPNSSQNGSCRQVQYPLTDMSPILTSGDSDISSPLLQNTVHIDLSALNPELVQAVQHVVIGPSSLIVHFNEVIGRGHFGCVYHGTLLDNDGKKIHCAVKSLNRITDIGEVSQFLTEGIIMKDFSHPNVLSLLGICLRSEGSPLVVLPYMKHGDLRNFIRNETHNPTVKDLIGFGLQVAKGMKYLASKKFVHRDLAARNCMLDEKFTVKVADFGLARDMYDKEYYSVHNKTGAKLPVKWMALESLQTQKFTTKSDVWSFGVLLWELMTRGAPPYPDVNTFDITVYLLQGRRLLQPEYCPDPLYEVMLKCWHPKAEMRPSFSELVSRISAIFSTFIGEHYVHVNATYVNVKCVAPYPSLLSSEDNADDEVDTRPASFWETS
Proto-oncogene tyrosine-protein kinase receptor Ret, sequence (P07949 whole entry): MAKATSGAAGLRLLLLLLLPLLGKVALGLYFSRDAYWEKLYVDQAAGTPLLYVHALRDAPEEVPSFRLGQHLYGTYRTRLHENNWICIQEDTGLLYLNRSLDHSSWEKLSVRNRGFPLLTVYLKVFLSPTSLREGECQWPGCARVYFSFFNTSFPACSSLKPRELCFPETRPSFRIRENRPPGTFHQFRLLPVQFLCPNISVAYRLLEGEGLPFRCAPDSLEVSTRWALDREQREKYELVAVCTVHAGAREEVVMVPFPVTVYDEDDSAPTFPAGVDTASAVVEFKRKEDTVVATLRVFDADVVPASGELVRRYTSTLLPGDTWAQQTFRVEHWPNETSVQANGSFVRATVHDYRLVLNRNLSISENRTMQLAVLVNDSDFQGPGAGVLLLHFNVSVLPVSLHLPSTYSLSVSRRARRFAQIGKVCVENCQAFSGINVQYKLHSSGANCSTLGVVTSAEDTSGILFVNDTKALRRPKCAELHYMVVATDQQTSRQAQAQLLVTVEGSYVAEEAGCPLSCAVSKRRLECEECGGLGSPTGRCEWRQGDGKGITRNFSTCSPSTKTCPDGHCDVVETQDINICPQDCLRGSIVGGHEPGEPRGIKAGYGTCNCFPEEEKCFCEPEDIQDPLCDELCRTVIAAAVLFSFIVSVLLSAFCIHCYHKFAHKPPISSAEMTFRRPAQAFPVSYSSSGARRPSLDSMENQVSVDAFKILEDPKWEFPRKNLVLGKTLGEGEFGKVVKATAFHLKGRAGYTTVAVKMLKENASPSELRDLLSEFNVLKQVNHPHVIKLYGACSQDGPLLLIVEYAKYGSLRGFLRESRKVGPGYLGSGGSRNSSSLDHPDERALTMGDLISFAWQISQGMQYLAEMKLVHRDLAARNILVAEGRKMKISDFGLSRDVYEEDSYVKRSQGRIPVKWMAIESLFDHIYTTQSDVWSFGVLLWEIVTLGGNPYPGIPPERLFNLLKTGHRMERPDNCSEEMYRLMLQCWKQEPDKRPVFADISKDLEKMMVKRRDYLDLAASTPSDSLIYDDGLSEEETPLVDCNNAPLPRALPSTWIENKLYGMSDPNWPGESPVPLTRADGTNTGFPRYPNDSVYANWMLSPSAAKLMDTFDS
Epidermal growth factor receptor, sequence (P00533 whole entry): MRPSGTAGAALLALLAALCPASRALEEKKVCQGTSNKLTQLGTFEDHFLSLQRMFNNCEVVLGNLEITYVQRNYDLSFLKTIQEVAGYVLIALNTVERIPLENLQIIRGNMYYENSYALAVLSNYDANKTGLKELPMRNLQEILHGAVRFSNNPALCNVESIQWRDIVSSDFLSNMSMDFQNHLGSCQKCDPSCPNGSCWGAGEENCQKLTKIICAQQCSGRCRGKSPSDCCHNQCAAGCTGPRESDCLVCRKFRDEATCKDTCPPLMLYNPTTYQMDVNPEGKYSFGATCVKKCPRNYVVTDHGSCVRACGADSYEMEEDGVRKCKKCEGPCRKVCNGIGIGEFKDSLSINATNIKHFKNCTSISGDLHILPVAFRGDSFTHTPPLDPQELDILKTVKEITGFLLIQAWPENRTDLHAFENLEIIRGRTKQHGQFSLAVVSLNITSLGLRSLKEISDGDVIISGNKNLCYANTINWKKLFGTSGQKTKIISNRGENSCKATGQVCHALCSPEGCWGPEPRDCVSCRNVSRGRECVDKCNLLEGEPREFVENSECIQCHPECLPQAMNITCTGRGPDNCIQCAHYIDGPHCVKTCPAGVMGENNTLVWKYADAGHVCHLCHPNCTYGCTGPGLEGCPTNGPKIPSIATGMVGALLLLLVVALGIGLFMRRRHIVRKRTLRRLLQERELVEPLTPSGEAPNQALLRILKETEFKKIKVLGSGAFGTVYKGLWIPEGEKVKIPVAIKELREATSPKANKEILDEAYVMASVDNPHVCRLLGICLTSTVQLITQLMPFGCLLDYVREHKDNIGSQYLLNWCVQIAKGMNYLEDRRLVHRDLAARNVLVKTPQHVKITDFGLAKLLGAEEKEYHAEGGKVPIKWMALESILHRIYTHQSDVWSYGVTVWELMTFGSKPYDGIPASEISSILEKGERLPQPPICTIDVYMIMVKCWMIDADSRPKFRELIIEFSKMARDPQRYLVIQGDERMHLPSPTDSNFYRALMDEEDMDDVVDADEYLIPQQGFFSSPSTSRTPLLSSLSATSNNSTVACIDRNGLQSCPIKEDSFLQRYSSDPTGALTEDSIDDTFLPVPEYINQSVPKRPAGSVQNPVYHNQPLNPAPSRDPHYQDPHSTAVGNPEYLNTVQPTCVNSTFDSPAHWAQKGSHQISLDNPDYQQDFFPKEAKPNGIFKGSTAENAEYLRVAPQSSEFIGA

IC50 [1] [nM]	IC50 (EBC-1) [nM]	IC50 (HepG2) [nM]	Compound	also measured
12	162		CCOc1ccn(-c2ccc(F)cc2)c(=O)c1C(=O)Nc1ccc(Oc2ccnc(N)c2Cl)c(F)c1 [BMS-777607]	IC50 [2]: 28 nM
17	127	> 1000	Nc1nccc(Oc2ccc(NC(=O)C3(C(=O)Nc4ccc(F)cc4)CC3)cc2F)c1Cl	IC50 [3]: > 1000 nM; IC50 [4]: 2220 nM; IC50 [5]: 279 nM; IC50 [2]: 172 nM; IC50 [6]: 387 nM; IC50 [7]: 55 nM; inhibition [8]: 100%
> 10000			COc1ccc(NC(=O)C2(C(=O)Nc3ccc(Oc4cc(N)ncn4)c(F)c3)CC2)cc1	
> 10000			Nc1nccc(Oc2ccc(NC(=O)C3(C(=O)NCc4ccc(F)cc4)CC3)cc2F)n1	
> 10000			Nc1cc(Oc2ccc(NC(=O)C3(C(=O)NCc4ccc(F)cc4)CC3)cc2F)ncn1	
	> 1000	> 1000	Nc1cc(Oc2ccc(NC(=O)C3(C(=O)Nc4ccc(Cl)cc4)CC3)cc2F)ncn1	
	> 1000	> 1000	Nc1nccc(Oc2ccc(NC(=O)C3(C(=O)Nc4cccc(F)c4)CC3)cc2F)c1Cl	
	> 1000	> 1000	Nc1nccc(Oc2ccc(NC(=O)C3(C(=O)Nc4ccc(F)cc4)CC3)cc2F)n1	
	> 1000	> 1000	Nc1cc(Oc2ccc(NC(=O)C3(C(=O)Nc4ccc(F)cc4)CC3)cc2F)ncn1	
	305	98.7	COc1cccc2c1C(=O)c1c(O)c3c(c(O)c1C2=O)C[C@@](O)(C(=O)CO)C[C@@H]3O[C@H]1C[C@H](N)[C@H](O)[C@H](C)O1 [DOXORUBICIN]	
			COc1cc2nccc(Oc3ccc(NC(=O)C4(C(=O)Nc5ccc(F)cc5)CC4)cc3)c2cc1OC [CABOZANTINIB]	IC50 [2]: > 10000 nM
	967	> 1000	Nc1nccc(Oc2ccc(NC(=O)C3(C(=O)Nc4ccc(Cl)cc4)CC3)cc2F)c1Cl	
